Results published in patent publication US11773368B2, “Culture method for differentiating primordial germ cells into functionally mature oocytes” (TOKYO UNIVERSITY OF AGRICULTURE, priority 2015, dated 2023).

Test system: primordial germ cells in gonads from female mouse fetuses at 12.5 dpc
Experiment: In vitro organ culture of gonad (secondary follicle formation)
Assay type: cell-based
Conditions: (vii) FBS/1 μM MPP group, 1 μM day 5-11
Description: For the medium of the organ culture, the basal medium supplemented with FBS (Gibco, Thermo Fisher Scientific Inc.), SPS (SAGE In vitro Fertilization), the estrogen receptor antagonist, 7α, 17β-[9-([4,4,5,5,5-pentafluoropentyl]sulfinyl)nonyl]estra-1,3,5(10)-triene-3,17-diol; ICI 182,780 (ICI; Tocris Bioscience), 4-hydroxytamoxifen (Sigma-Aldrich), and MPP (Methylpiperidino pyrazole; Cayman Chemical) were added at the indicated concentrations for each experimental group below. The α-MEM medium (Gibco, Thermo Fisher Scientific Inc.) supplemented with 1.5 mM 2-O-α-d glucopyranosyl-1-ascorbic acid (Tokyo Chemical Industry), 10 units/mL penicillin, and 10 μg/mL streptomycin (Sigma-Aldrich) was used as a basal medium (referred to the basal medium hereafter as α-MEM).
ICI 182,780 and 4-hydroxytamoxifen was prepared as follows. ICI 182,780 and 4-hydroxytamoxifen was diluted to 100 mM using DMSO, and cryopreserved stock was prepared. MPP was diluted to 10 mM using DMSO, and cryopreserved stock was prepared. 1 mM solutions of ICI 182, 780 and 4-hydroxytamoxifen were prepared by diluting the 100 mM stocks 100-fold with DMSO just before use and were added to the medium at the indicated final concentrations for each experimental group. MPP was added to the medium at 1 μM as the final concentration just before use.
The gonads for the organ culture were collected with mesonephros or without mesonephros from female mouse fetuses at 12.5 dpc (FIG. 1a). 2.2 ml of the medium was added to each 6-well culture plate used for the organ culture. Transwell®-COL membrane (3.0-μm pore size, 24-mm diameter; Corning) was put on each well of the 6-well culture plate. The gonads were transferred on the membrane and were cultured for 17 days at 37° C. under 5% CO2 and 95% air. Approximately half of the medium in each well was replaced with fresh medium every other day. In the example in which the gonad was cultured with mesonephros, mesonephros was removed from the gonad at day 7 of the organ culture.
The in vitro organ culture of the gonads was performed according to the following conditions described below. The gonads were cultured for total 17 days in each conditions below (FIG. 2):
(i) culture for the complete 17 days period in 10% FBS containing α-MEM (α-MEM+FBS; FBS group);
(ii) culture for the complete 17 days period in 10% SPS containing α-MEM (α-MEM+SPS; SPS group);
(iii) culture for the complete 17 days period in 10% KSR containing α-MEM (α-MEM+KSR; KSR group);
(iv) culture in 10% FBS containing α-MEM for 4 days with a shift to 10% SPS containing α-MEM for 6 days from day 5 and a shift to 10% FBS containing α-MEM until day 17 from day 11 (αMEM+FBS/SPS; FBS/SPS group);
(v) culture in 10% FBS containing α-MEM for 4 days with a shift to 10% FBS containing α-MEM with the addition of 10 nM, 100 nM, 1 μM, 5 μM, or 10 μM (final concentration) ICI for 6 days from day 5 and a shift to 10% FBS containing α-MEM until day […] (αMEM+FBS/10 nM ICI; FBS/10 nM ICI group, αMEM+FBS/100 nM ICI; FBS/100 nM ICI group, αMEM+FBS/1 μM ICI; FBS/1 μM ICI group, αMEM+FBS/5 μM ICI; FBS/5 μM ICI group, or αMEM+FBS/10 μM ICI; FBS/10 μM ICI group);
(vi) culture in 10% FBS containing α-MEM for 4 days with a shift to 10% FBS containing α-MEM with the addition of 1 μM (final concentration) 4-hydroxytamoxifen for 6 days from day 5 and a shift to 10% FBS containing α-MEM until day 17 from day 11 (αMEM+FBS/1 μM Tamoxifen; FBS/1 μM Tamoxifen group);
(vii) culture in 10% FBS containing α-MEM for 4 days with a shift to 10% FBS containing α-MEM with the addition of 1 μM (final concentration) MPP for 6 days from day 5 and a shift to 10% FBS containing α-MEM until day 17 from day 11 (αMEM+FBS/1 μM MPP; FBS/1 μM MPP group).
Vitrification and warming were conducted as follows by reference to Wang, X. et al., “Successful in vitro culture of pre-antral follicles derived from vitrified murine ovarian tissue: oocyte maturation, fertilization, and live births.” Reproduction 141, 183-191 (2011). […]

Cc1c(-c2ccc(O)cc2)nn(-c2ccc(O)cc2)c1-c1ccc(OCCN2CCCCC2)cc1 [MPP, 4-[1-(4-hydroxyphenyl)-4-methyl-5-[4-[2-(1-piperidinyl)ethoxy]phenyl]-1H-pyrazol-3-yl]-phenol]
secondary follicles collected from one ovary: 15
